Measured values as given in patent publication EP4076478B1, “COMPOSITION AND METHOD FOR THE TREATMENT OF TYPE I DIABETES” (Vector Vitale IP LLC, priority 2019, dated 2021).

Assay: Accumulation of metals in liver and kidney tissues after intraperitoneal administration
Format: in vivo, rats
Settings: day 1 and day 7 after discontinuation of the substances

With `CC(=O)[O-].CC(=O)[O-].[Zn+2]` [Zn acetate, Zn(CH3COO)2] the “zinc in the kidney and liver tissues” value was “significantly increased”.
